Common to all, as to format: biochemical
In one assay the target is T1, TACE (Homo sapiens, UniProt P78536).
T1 construct: purchased Immunex
The assay is described as follows: Procedure for Measuring TACE Inhibition. The method in brief:
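Single-concentration screen: test compound at 1 µM final, 10-min room-temperature preincubation with 1 µg/mL protease in Tris pH 7.4 buffer containing glycerol. Initial rate from linear fluorescence increase (340/420 nm) over 10 min after adding 100 µM peptidyl substrate; significance versus control rate by Dunnett's test.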

The target in another assay is T2, MMP 1 (Homo sapiens, UniProt P03956).
T2 construct: human recombinant fibroblast collagenase (truncated, mw= 18,828, WAR, Radnor)
T2 sequence (P03956 100-269 limits assumed): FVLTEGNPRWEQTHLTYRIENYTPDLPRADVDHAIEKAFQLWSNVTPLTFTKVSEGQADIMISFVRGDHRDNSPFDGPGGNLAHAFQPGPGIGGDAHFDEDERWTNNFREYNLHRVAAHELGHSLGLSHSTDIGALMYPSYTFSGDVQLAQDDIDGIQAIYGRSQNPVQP
Description: In Vitro Collagenase Assay. Conditions: for inhibition at 1 µM: read-out: MMP 1 % inhibition at 1 micromolar, 1 micromolar; for IC50: read-out: MMP 1 IC 50. On the procedure:
The assay is based on the cleavage of a peptide substrate ((Dnp-Pro-Cha-Gly-Cys(Me)-His-Ala-Lys(NMa)-NH2), Peptide International, Inc.) by collagenase releasing the fluorescent NMa group which is quantitated on the fluorometer. Dnp quenches the NMa fluorescence in the intact substrate. […] Substrate is dissolved in methanol and stored frozen in 1 mM aliquots. […] For the assay, substrate is dissolved in HCBC buffer to a final concentration of 10 µM and collagenase to a final concentration of 5 nM. Compounds are dissolved in methanol, DMSO, or HCBC. The methanol and DMSO are diluted in HCBC to < 1.0%. Compounds are added to the 96 well plate containing enzyme and the reaction is started by the addition of substrate.
The slope of the line is calculated and represents the reaction rate.
The linearity of the reaction rate is confirmed (r^2 >0.85). The mean (x ± sem) of the control rate is calculated and compared for statistical significance (p <0.05) with drug-treated rates using Dunnett's multiple comparison test.

The next assay deals with T3, MMP 9 (Homo sapiens, UniProt P14780).
T3 construct: from tissue; host or cells: human neutrophils
T3 sequence (P14780 94-707): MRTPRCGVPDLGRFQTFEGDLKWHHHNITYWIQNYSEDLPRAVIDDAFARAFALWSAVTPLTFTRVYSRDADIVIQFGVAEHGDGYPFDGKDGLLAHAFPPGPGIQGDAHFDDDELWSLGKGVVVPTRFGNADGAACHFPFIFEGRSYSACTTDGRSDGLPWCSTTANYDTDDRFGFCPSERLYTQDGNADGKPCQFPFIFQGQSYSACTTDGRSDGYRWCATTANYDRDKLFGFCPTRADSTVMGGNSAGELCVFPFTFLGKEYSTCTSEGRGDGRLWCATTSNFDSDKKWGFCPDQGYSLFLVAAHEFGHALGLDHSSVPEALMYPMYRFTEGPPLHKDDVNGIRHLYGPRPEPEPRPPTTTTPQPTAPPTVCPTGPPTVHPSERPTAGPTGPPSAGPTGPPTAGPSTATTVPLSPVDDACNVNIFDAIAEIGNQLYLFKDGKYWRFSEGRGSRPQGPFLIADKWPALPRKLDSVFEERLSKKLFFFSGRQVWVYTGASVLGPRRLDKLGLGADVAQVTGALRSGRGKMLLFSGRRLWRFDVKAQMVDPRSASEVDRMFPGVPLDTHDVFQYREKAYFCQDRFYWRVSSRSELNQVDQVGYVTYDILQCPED
Description: In Vitro Gelatinase Assay. Conditions: for IC50: read-out: MMP 9 IC 50; for inhibition at 1 µM: read-out: MMP 9 % inhibition at 1 micromolar, 1 micromolar. The procedure:
The assay is based on the cleavage of the thiopeptide substrate ((Ac-Pro-Leu-Gly(2 mercapto-4 methyl-pentanoyl)-Leu-Gly-OEt), Bachem Bioscience) by the enzyme, gelatinase, releasing the substrate product which reacts colorimetrically with DTNB ((5,5'-dithio-bis(2-nitro-benzoic acid)). The enzyme activity is measured by the rate of the color increase. The thiopeptide substrate is made up fresh as a 20 mM stock in 100% DMSO and the DTNB is dissolved in 100% DMSO as a 100 mM stock and stored in dark at room temperature. Both the substrate and DTNB are diluted together to 1 mM with substrate buffer (50 mM HEPES pH 7.5, 5 mM CaCl2) before use. […] The increase in OD405 is plotted and the slope of the line is calculated which represents the reaction rate. The linearity of the reaction rate is confirmed (r^2 >0.85). The mean (x ± sem) of the control rate is calculated and compared for statistical significance (p <0.05) with drug-treated rates using Dunnett's multiple comparison test.

A further assay concerns the target MMP 13 (Homo sapiens, UniProt P45452). The assay is described as follows: MMP 13 inhibition (HTS; method not described). Conditions: HTS; for inhibition at 0.036 µM: read-out: MMP 13 % inhibition at 36 nM (HTS).
Where [1] appears, read: read-out: TACE % inhibition at 1 micromolar.
The mark [2] stands for this setting: human recombinant fibroblast collagenase.
Setting [3] is: read-out: TACE % inhibition at 1 µM, 1 µM, Examples 169-240.

Where two headings read alike, the source gives them in different places.

As a reminder, the inhibition is the relative decrease from the control value, in per cent.

T1 sequence (P78536 215-824): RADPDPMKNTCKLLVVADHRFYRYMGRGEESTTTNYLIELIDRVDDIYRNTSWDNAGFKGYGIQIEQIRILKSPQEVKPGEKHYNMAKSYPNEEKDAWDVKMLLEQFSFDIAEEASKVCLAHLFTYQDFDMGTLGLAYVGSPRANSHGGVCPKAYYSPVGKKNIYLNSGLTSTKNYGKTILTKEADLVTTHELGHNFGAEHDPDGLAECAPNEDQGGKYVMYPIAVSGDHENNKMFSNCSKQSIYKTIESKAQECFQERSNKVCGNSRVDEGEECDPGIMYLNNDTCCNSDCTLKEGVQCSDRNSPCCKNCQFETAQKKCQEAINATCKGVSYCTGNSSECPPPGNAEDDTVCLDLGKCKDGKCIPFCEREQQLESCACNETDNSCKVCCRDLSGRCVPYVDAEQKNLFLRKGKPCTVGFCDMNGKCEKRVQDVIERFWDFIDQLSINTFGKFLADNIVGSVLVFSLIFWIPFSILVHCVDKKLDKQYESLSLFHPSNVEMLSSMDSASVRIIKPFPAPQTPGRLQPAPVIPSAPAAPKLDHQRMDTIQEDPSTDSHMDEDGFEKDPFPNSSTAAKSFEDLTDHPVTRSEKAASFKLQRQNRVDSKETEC

On to `CCCCC(C(=O)NO)S(=O)(=O)c1ccc(OC)cc1` (centres unmarked) [Example 10, 2-(4-Methoxy-benzenesulfonyl)-hexanoic acid hydroxyamide], for which the figures for the inhibition at 1 µM on TACE (setting [1]) and at MMP 1 (setting [2]) were 54.8% and 8%, respectively.
On to `CCCCCCCCCCCCC(C(=O)NO)S(=O)(=O)c1ccc(OC)cc1` (centres unmarked) [Example 11, 2-(4-Methoxy-benzenesulfonyl)-tetradecanoic hydroxyamide], for which the IC50 on TACE (read-out: TACE IC 50) came out at 942 nM. For the same molecule, the inhibition at 1 µM on MMP 1 (setting [2]) stood at 18.8%.
Regarding `COc1ccc(S(=O)(=O)C(C)(Cc2ccccc2)C(=O)NO)cc1` (centres unmarked) [Example 12, N-Hydroxy-2-(4-methoxy-benzenesulfonyl)-2-methyl-3-phenyl-propionamide], the inhibition at 1 µM on TACE (setting [1]) is 15.5%. Also, the IC50 on MMP 1 (setting [2]) was 100 nM.
In the case of `COc1ccc(S(=O)(=O)C(C)(Cc2ccc3ccccc3c2)C(=O)NO)cc1` (centres unmarked) [Example 52, N-hydroxy-2-(4-methoxy-benzenesulfonyl)-2-methyl-3-naphthalen-2-yl-propionamide], the IC50 was found to be 7.9 nM on MMP 9 (human neutrophil gelatinase B) and 139 nM at MMP 1 (setting [2]).
`COc1ccc(S(=O)(=O)C(C(=O)NO)C(C)C)cc1` (centres unmarked) [Example 53, N-Hydroxy-2-(4-methoxy-benzenesulfonyl)-3-methyl-butyramide]: the inhibition at 1 µM is 27.8% at MMP 9 (human neutrophil gelatinase B) and 52.6% on TACE (setting [1]).
`CCCC(CCC)(C(=O)NO)S(=O)(=O)c1ccc(OC)cc1` [Example 59, 2-(4-methoxy-benzenesulfonyl)-2-propyl-pentanoic acid hydroxyamide]: the inhibition at 1 µM on TACE (setting [1]) is 24.9%; at MMP 1 (setting [2]) it was 30.2%.
As for `COc1ccc(S(=O)(=O)C(Cc2ccccc2)(Cc2ccccc2)C(=O)NO)cc1` [Example 60, 2-benzyl-N-hydroxy-2-(4-methoxy-benzenesulfonyl)-3-phenyl-propionamide], at MMP 9 (human neutrophil gelatinase B), the IC50 turned out to be 184 nM. At TACE (setting [1]), the inhibition at 1 µM was 23.6%.
Regarding `CCCCC(Cc1cccnc1)(C(=O)NO)S(=O)(=O)c1ccc(OC)cc1` (centres unmarked) [Example 70, 2-(4-Methoxy-benzenesulfonyl)-2-pyridin-3-ylmethyl-hexanoic acid hydroxyamide], on MMP 9 (human neutrophil gelatinase B), the inhibition at 1 µM was 88.8%. In addition, on TACE (read-out: TACE IC 50), the IC50 was determined as 764 nM.
With `C#CCC(CC#C)(C(=O)NO)S(=O)(=O)c1ccc(OC)cc1` [Example 73, 2-(4-Methoxy-benzenesulfonyl)-2-prop-2-ynyl-pent-4-ynoic acid hydroxyamide], the inhibition at 1 µM on TACE (setting [1]) is 20.2%. In addition, the IC50 at MMP 1 (setting [2]) amounted to 300 nM.
With `COc1ccc(S(=O)(=O)C2(C(=O)NO)CCN(Cc3ccc(-c4ccccc4)cc3)CC2)cc1` [Example 88, 1-Biphenyl-4-ylmethyl-4-(4-methoxy-benzenesulfonyl)piperidine-4-carboxylic acid hydroxamide], the IC50 at MMP 9 was determined as 12.8 nM; at MMP 1, 1330 nM.
As to `COc1ccc(S(=O)(=O)C2(C(=O)NO)CCN(Cc3ccc(Br)cc3)CC2)cc1` [Example 90, 1-(4-Bromo-benzyl)-4-(4-methoxy-benzenesulfonyl)-piperidine-4-carboxylic acid hydroxyamide], the IC50 on MMP 9 (human neutrophil gelatinase B) amounted to 10.3 nM.
For the molecule `CCCCN1CCC(C(=O)NO)(S(=O)(=O)c2ccc(OC)cc2)CC1` [Example 93, 1-Butyl-4-(4-methoxy-benzenesulfonyl)-piperidine-4-carboxylic acid hydroxyamide], the inhibition at 1 µM at TACE (setting [1]) turned out to be 15.8%; at MMP 1 (setting [2]) it was 56.3%.
With `CCCCCCC(Sc1nccs1)C(=O)NO` (centres unmarked) [Example 186, 2-(Thiazol-2-ylsulfanyl)-octanoic acid hydroxyamide], on TACE (setting [3]), the inhibition at 1 µM came out at 19.5%. For the same molecule, the inhibition at 0.036 µM at MMP 13 (36 nM) is -14%.
Taken in the same sequence, the figures for `CCCCCCC(SCC1NC(=O)NC1=O)C(=O)NO` (centres unmarked) [Example 187, 2-(2,5-Dioxo-imidazolidin-4-ylmethylsulfanyl)-octanoic acid hydroxyamide] were 85.5% and -14%.
For `CCCCCCC(C(=O)NO)[S+]([O-])c1cccc2cccnc12` (centres unmarked) [Example 190, 2-(Quinoline-8-sulfinyl)-octanoic acid hydroxyamide] the same measures were 38.3% and -35%.
`CCCCCCC(C(=O)NO)S(=O)(=O)c1cccc(C(=O)NO)c1` (centres unmarked) [Example 192, 3-(1-Hydroxycarbamoyl-heptylsulfonyl)-benzoic acid hydroxyamide]: at TACE (setting [3]), the inhibition at 1 µM is 33.2%. For the same molecule, on MMP 13 (36 nM), the inhibition at 0.036 µM was -32%.
For `CCCCCCC(C(=O)NO)S(=O)(=O)c1ccc(CCC(=O)NO)cc1` (centres unmarked) [Example 193, 3-[4-(1-Hydroxycarbamoyl-heptylsulfonyl)-phenyl]-propionic acid hydroxy amide] the same measures were 14.9% and -32%.
In the case of `CCCCCCC(C(=O)NO)S(=O)(=O)c1ncc[nH]1` (centres unmarked) [Example 194, 2-(1H-Imidazole-2-sulfonyl)-octanoic acid hydroxyamide], the inhibition at 1 µM at TACE (setting [3]) is 5.4%. Also, at MMP 13 (36 nM), the inhibition at 0.036 µM was -17%.
As to `CCCCCCC(C(=O)NO)S(=O)(=O)CC(=O)Nc1ccc2ccccc2c1` (centres unmarked) [Example 197, 2-(Naphthalen-2-ylcarbamoylmethanesulfonyl)-octanoic acid hydroxyamide], the inhibition at 1 µM on TACE (setting [3]) is 17.8%. In addition, the inhibition at 0.036 µM on MMP 13 (36 nM) was -33%.
Consider `CCCCCCC(Sc1ccc(Nc2ccncc2)cc1)C(=O)NO` (centres unmarked) [Example 227, 2-[4-(Pyridin-4-ylamino)-phenylsulfanyl]-octanoic acid hydroxyamide], for which the inhibition at 1 µM on TACE (setting [3]) worked out at 7.3%. Further, on MMP 13 (36 nM), the inhibition at 0.036 µM was 15%.
With `CCCCCCC(Sc1ccc(NC2CCCC2)cc1)C(=O)NO` (centres unmarked) [Example 228, 2-(4-Cyclopentylamino-phenylsulfanyl)-octanoic acid hydroxyamide], the inhibition at 1 µM at TACE (setting [3]) worked out at 6.8%. Also, the inhibition at 0.036 µM on MMP 13 (36 nM) was determined as 37%.
Regarding `CCCCCCC(Sc1ccc(NC)cc1)C(=O)NO` (centres unmarked) [Example 229, 2-(4-Methylamino-phenylsulfanyl)-octanoic acid hydroxyamide], the inhibition at 1 µM at TACE (setting [3]) stood at 34.4%. For the same molecule, on MMP 13 (36 nM), the inhibition at 0.036 µM was determined as 29%.
For the molecule `CCCCCCC(Sc1ccc(N2CCCCC2)cc1)C(=O)NO` (centres unmarked) [Example 230, 2-(4-Piperidin-1-yl-phenylsulfanyl)-octanoic acid hydroxyamide], on TACE (Examples 169-240, read-out: TACE IC50), the IC50 amounted to 700 nM. The inhibition at 1 µM on TACE (setting [3]) was determined as 72.1%. Further, on MMP 13 (36 nM), the inhibition at 0.036 µM worked out at 29%.
Take `CCCCCCC(Sc1ccc(N2CCNCC2)cc1)C(=O)NO` (centres unmarked) [Example 231, 2-(4-Piperazin-1-yl-phenylsulfanyl)-octanoic acid hydroxyamide]: the inhibition at 1 µM on TACE (setting [3]) was 41.6%. The inhibition at 0.036 µM at MMP 13 (36 nM) turned out to be 23%.
Take “(1-Hydroxycarbamoyl-propane-1-sulfanyl)-propionic acid hydroxyamide [Example 122]”: the “TACE % inhibition at 1 µM” value on TACE (1 µM, Examples 110-168) was 3.1%. Further, the “MMP 13 % inhibition at 0.2 µM (HTS)” value on MMP 13 came to 0%.
For “(1-Hydroxycarbamoyl-propane-1-sulfinyl)-acetic acid hydroxy amide [Example 121]” the same measures were 6.1% and 0%.
With “Benzo[1,2,5]thiadiazole-4-sulfonic acid 4-(1-hydroxycarbamoyl-heptylsulfonyl)-hydroxyamide [Example 240]”, at TACE (1 µM, Examples 169-240), the “TACE % inhibition at 1 µM” value came to 40.3%. In addition, at MMP 13 (36 nM), the “MMP 13 % inhibition at 36 nM (HTS)” value worked out at 48%.
Consider “N-Hydroxy-3-methyl-2-phenethylsulfinyl-butyramide [Example 117]”, for which, at TACE (1 µM, Examples 110-168), the “TACE % inhibition at 1 µM” value was determined as 8.1%. Moreover, the “MMP 13 % inhibition at 0.2 µM (HTS)” value on MMP 13 is 7%.

Values taken from patent publication EP0970046B1, “N-HYDROXY-2-(ALKYL, ARYL, OR HETEROARYL SULFANYL, SULFINYL OR SULFONYL)-3-SUBSTITUTED ALKYL, ARYL OR HETEROARYLAMIDES AS MATRIX METALLOPROTEINASE INHIBITORS” (Wyeth Holdings Corporation, priority 1997, dated 1998).
